Data from patent publication US20250276983A1, “COMPOUNDS AND METHODS FOR MODULATING HER2” (IAMBIC THERAPEUTICS, INC., priority 2022, published 2025).
Like-named read-outs stand apart in the source and are kept apart here.

Experiments:
Assay type in all cases: cell-based
BaF3_HER2YVMA cells = experiment: Cell growth inhibition assay, BaF3_HER2YVMA; settings: BaF3_HER2YVMA cells, 3 days treatment, CellTiterGlo 2.0, read-out: HER2-YVMA IC50 (nM), cell growth inhibition
BaF3_EGFRWT cells = experiment: Cell growth inhibition assay, BaF3_EGFRWT; settings: 80 ng/mL recombinant human EGF, 3 days treatment, CellTiterGlo 2.0, read-out: EGFR WT IC50 (nM), cell growth inhibition
BaF3_HER2WT cells = experiment: Cell growth inhibition assay, BaF3_HER2WT; settings: 3 days treatment, CellTiterGlo 2.0, read-out: HER2 WT IC50 (nM), cell growth inhibition

| Compound | IC50 (BaF3_HER2YVMA cells) | IC50 (BaF3_EGFRWT cells; 72 h) | IC50 (BaF3_HER2WT cells) | IC50 (BaF3_HER2YVMA cells; 72 h) | IC50 (BaF3_HER2WT cells; 72 h) | IC50 (BaF3_EGFRWT cells) |
| --- | --- | --- | --- | --- | --- | --- |
| Cc1cc(Nc2ncnn3ccc(C4CCCN(C(=O)/C=C/CN(C)C)C4)c23)ccc1Oc1ccn2ncnc2c1 (single isomer, unassigned) [Examples 107 and 108, first eluting isomer, (E)-1-(3-(4-((4-([1,2,4]triazolo[1,5-a]pyridin-7-yloxy)-3-methylphenyl)amino)pyrrolo[2,1-f][1,2,4]triazin-5-yl)piperidin-1-yl)-4-(dimethylamino)but-2-en-1-one] | 500 to 1500 nM | 1500 to 5000 nM | < 200 nM |  |  |  |
| Cc1cc(Nc2ncnn3ccc(C4(F)CCN(C(=O)/C=C/CN(C)C)CC4)c23)ccc1Oc1ccn2ncnc2c1 [Example 175, (E)-1-(4-(4-((4-([1,2,4]triazolo[1,5-a]pyridin-7-yloxy)-3-methylphenyl)amino)pyrrolo[2,1-f][1,2,4]triazin-5-yl)-4-fluoropiperidin-1-yl)-4-(dimethylamino)but-2-en-1-one] |  | 1500 to 5000 nM |  | 1500 to 5000 nM | 1500 to 5000 nM |  |
| C=CC(=O)N1CCN(c2ccn3ncnc(Nc4ccc(Oc5ccc6c(c5)ncn6C)c(C)c4)c23)CC1 [Example 121, 1-(4-(4-((3-methyl-4-((1-methyl-1H-benzo[d]imidazol-5-yl)oxy)phenyl)amino)pyrrolo[2,1-f][1,2,4]triazin-5-yl)piperazin-1-yl)prop-2-en-1-one] |  | 500 to 1500 nM |  | < 200 nM | < 200 nM |  |
| CN(C)C/C=C/C(=O)N1CC(c2ccn3ncnc(Nc4cnc(Oc5cccc(C(F)(F)F)c5)c(Cl)c4)c23)C1 [Example 90, (E)-1-(3-(4-((5-chloro-6-(3-(trifluoromethyl)phenoxy)pyridin-3-yl)amino)pyrrolo[2,1-f][1,2,4]triazin-5-yl)azetidin-1-yl)-4-(dimethylamino)but-2-en-1-one] |  | 1500 to 5000 nM |  | 1500 to 5000 nM | 1500 to 5000 nM |  |
| COC/C=C/C(=O)N1CCC(c2ccn3ncnc(Nc4ccc(Oc5ccn6ncnc6c5)c(C)c4)c23)CC1 [Example 58, (E)-1-(4-(4-((4-([1,2,4]triazolo[1,5-a]pyridin-7-yloxy)-3-methylphenyl)amino)pyrrolo[2,1-f][1,2,4]triazin-5-yl)piperidin-1-yl)-4-methoxybut-2-en-1-one] |  | 1500 to 5000 nM |  | 500 to 1500 nM | < 200 nM |  |
| Cc1cc(Nc2ncnn3ccc(C4(O)CN(C(=O)/C=C/CN(C)C)C4)c23)ccc1Oc1ccn2ncnc2c1 [Example 51, (E)-1-(3-(4-((4-([1,2,4]triazolo[1,5-a]pyridin-7-yloxy)-3-methylphenyl)amino)pyrrolo[2,1-f][1,2,4]triazin-5-yl)-3-hydroxyazetidin-1-yl)-4-(dimethylamino)but-2-en-1-one] |  | 1500 to 5000 nM |  | < 200 nM | < 200 nM |  |
| Cc1cc(Nc2ncnn3ccc(C4CCN(C(=O)/C=C/CN5CCC6(COC6)C5)CC4)c23)ccc1Oc1ccn2ncnc2c1 [Example 120, E-1-(4-(4-((4-([1,2,4]triazolo[1,5-a]-208-midazol-7-yloxy)-3-methylphenyl)amino)pyrrolo[2,1-f][1,2,4]triazin-5-yl)piperidin-1-yl)-4-(2-oxa-6-azaspiro[3.4]octan-6-yl)but-2-en-1-one] |  | 1500 to 5000 nM |  | < 200 nM | < 200 nM |  |
| C=C(CN(C)C)C(=O)N1C2CCC1CC(c1ccn3ncnc(Nc4ccc(Oc5ccn6ncnc6c5)c(C)c4)c13)C2 (single isomer, unassigned) [Examples 126 and 127, second eluting isomer, 1-(3-(4-((4-([1,2,4]triazolo[1,5-a]pyridin-7-yloxy)-3-methylphenyl)amino)pyrrolo[2,1-f][1,2,4]triazin-5-yl)-8-azabicyclo[3.2.1]octan-8-yl)-2-((dimethylamino)methyl)prop-2-en-1-one] | 500 to 1500 nM |  | < 200 nM |  |  | 1500 to 5000 nM |
| Cc1cc(Nc2ncnn3ccc(C4=CCN(C(=O)/C=C/CN(C)C)CC4)c23)ccc1Oc1ccn2ncnc2c1 [Example 53, (E)-1-(4-(4-((4-([1,2,4]triazolo[1,5-a]pyridin-7-yloxy)-3-methylphenyl)amino)pyrrolo[2,1-f][1,2,4]triazin-5-yl)-3,6-dihydropyridin-1(2H)-yl)-4-(dimethylamino)but-2-en-1-one] |  | 1500 to 5000 nM |  | < 200 nM | < 200 nM |  |
| COC1CCN(C/C=C/C(=O)N2CCC(c3ccn4ncnc(Nc5ccc(Oc6ccn7ncnc7c6)c(C)c5)c34)CC2)C1 (stereo not drawn) [Example 118, E-1-(4-(4-((4-([1,2,4]triazolo[1,5-a]-207-midazol-7-yloxy)-3-methylphenyl)amino)pyrrolo[2,1-f][1,2,4]triazin-5-yl)piperidin-1-yl)-4-(3-methoxypyrrolidin-1-yl)but-2-en-1-one] |  | 1500 to 5000 nM |  | < 200 nM | < 200 nM |  |
| C=CC(=O)N(C)C1CCN(c2ccn3ncnc(Nc4ccc(Oc5ccn6ncnc6c5)c(C)c4)c23)CC1 [Example 74, N-(1-(4-((4-([1,2,4]triazolo[1,5-a]pyridin-7-yloxy)-3-methylphenyl)amino)pyrrolo[2,1-f][1,2,4]triazin-5-yl)piperidin-4-yl)-N-methylacrylamide] |  | 1500 to 5000 nM |  | 500 to 1500 nM | < 200 nM |  |
| C=C(CN(C)C)C(=O)N1C2C=C(c3ccn4ncnc(Nc5ccc(Oc6ccn7ncnc7c6)c(C)c5)c34)CC1CC2 (stereo not drawn) [Example 30, 1-(3-(4-((4-([1,2,4]triazolo[1,5-a]pyridin-7-yloxy)-3-methylphenyl)amino)pyrrolo[2,1-f][1,2,4]triazin-5-yl)-8-azabicyclo[3.2.1]oct-2-en-8-yl)-2-((dimethylamino)methyl)prop-2-en-1-one acetate] |  | 1500 to 5000 nM |  | < 200 nM | < 200 nM |  |
| CNC/C=C/C(=O)N1CC(c2ccn3ncnc(Nc4ccc(Oc5ccc6c(c5)ncn6C)c(C)c4)c23)C1 [Example 153, (E)-1-(3-(4-((3-methyl-4-((1-methyl-1H-benzo[d]imidazol-5-yl)oxy)phenyl)amino)pyrrolo[2,1-f][1,2,4]triazin-5-yl)azetidin-1-yl)-4-(methylamino)but-2-en-1-one] |  | 1500 to 5000 nM |  | 1500 to 5000 nM | 1500 to 5000 nM |  |
| C=CC(=O)N1CCN(c2ccn3ncnc(Nc4ccc(Oc5ccn6ncnc6c5)c(C)c4)c23)CC12CC2 [Example 75, 1-(7-(4-((4-([1,2,4]triazolo[1,5-a]pyridin-7-yloxy)-3-methylphenyl)amino)pyrrolo[2,1-f][1,2,4]triazin-5-yl)-4,7-diazaspiro[2.5]octan-4-yl)prop-2-en-1-one] |  | 500 to 1500 nM |  | < 200 nM | < 200 nM |  |
| Cc1cc(Nc2ncnn3ccc(N4CCN(C(=O)/C=C/CN(C)C)CC4=O)c23)ccc1Oc1ccn2ncnc2c1 [Example 54, (E)-1-(4-((4-([1,2,4]triazolo[1,5-a]pyridin-7-yloxy)-3-methylphenyl)amino)pyrrolo[2,1-f][1,2,4]triazin-5-yl)-4-(4-(dimethylamino)but-2-enoyl)piperazin-2-one] |  | 1500 to 5000 nM |  | 1500 to 5000 nM | 500 to 1500 nM |  |
| Cc1cc(Nc2ncnn3ccc(C4CN(C(=O)/C=C/CN5CC(F)C5)C4)c23)ccc1Oc1ccc2c(c1)ncn2C [Example 161, (E)-4-(3-fluoroazetidin-1-yl)-1-(3-(4-((3-methyl-4-((1-methyl-1H-benzo[d]imidazol-5-yl)oxy)phenyl)amino)pyrrolo[2,1-f][1,2,4]triazin-5-yl)azetidin-1-yl)but-2-en-1-one] |  | 1500 to 5000 nM |  | < 200 nM | < 200 nM |  |
| C=C(CN(C)C)C(=O)N1CCCC(c2ccn3ncnc(Nc4ccc(Oc5ccn6ncnc6c5)c(C)c4)c23)CC1 (single isomer, unassigned) [Examples 143 and 144, second eluting isomer, 1-(4-(4-((4-([1,2,4]triazolo[1,5-a]pyridin-7-yloxy)-3-methylphenyl)amino)pyrrolo[2,1-f][1,2,4]triazin-5-yl)azepan-1-yl)-2-((dimethylamino)methyl)prop-2-en-1-one] | < 200 nM |  | < 200 nM |  |  | 1500 to 5000 nM |
| Cc1cc(Nc2ncnn3ccc(C4CCN(C(=O)/C=C/CN(C)C)CC4)c23)ccc1Oc1ccn2ncnc2c1 [Example 21, (E)-1-(4-(4-((4-([1,2,4]triazolo[1,5-a]pyridin-7-yloxy)-3-methylphenyl)amino)pyrrolo[2,1-f][1,2,4]triazin-5-yl)piperidin-1-yl)-4-(dimethylamino)but-2-en-1-one] |  | 1500 to 5000 nM |  |  |  |  |
| Cc1cc(Nc2ncnn3ccc(C4CCCN(C(=O)/C=C/CN(C)C)CC4)c23)ccc1Oc1ccn2ncnc2c1 (single isomer, unassigned) [Examples 109 and 110, second eluting isomer, (E)-1-(4-(4-((4-([1,2,4]triazolo[1,5-a]pyridin-7-yloxy)-3-methylphenyl)amino)pyrrolo[2,1-f][1,2,4]triazin-5-yl)azepan-1-yl)-4-(dimethylamino)but-2-en-1-one] |  |  |  |  |  | 1500 to 5000 nM |
| COC1CN(C/C=C/C(=O)N2CC(c3ccn4ncnc(Nc5ccc(Oc6ccn7ncnc7c6)c(C)c5)c34)C2)C1 [Example 39, (E)-1-(3-(4-((4-([1,2,4]triazolo[1,5-a]pyridin-7-yloxy)-3-methylphenyl)amino)pyrrolo[2,1-f][1,2,4]triazin-5-yl)azetidin-1-yl)-4-(3-methoxyazetidin-1-yl)but-2-en-1-one] |  | 1500 to 5000 nM |  |  | < 200 nM |  |
| C=CC(=O)N1CCCC(c2ccn3ncnc(Nc4ccc(Oc5ccn6ncnc6c5)c(C)c4)c23)CC1 (single isomer, unassigned) [Examples 111 and 112, second eluting isomer, 1-(4-(4-((4-([1,2,4]triazolo[1,5-a]pyridin-7-yloxy)-3-methylphenyl)amino)pyrrolo-[2,1-f][1,2,4]triazin-5-yl)azepan-1-yl)prop-2-en-1-one] | < 200 nM |  |  |  |  | 1500 to 5000 nM |
